Key:
Type in all cases: cell-based
[1] = system: human peripheral blood mononuclear cells; assay: Endotoxin-induced secretion of mature IL-1β by peripheral blood mononuclear cells (ELISA)
Experimental: Reagents IL-18BPa isoform was expressed with a N-terminal (His)6 tag in Chinese hamster ovary cells and purified to homogeneity. The ability of IL-18BPa-(His)6 to neutralize IL-18 has been described (Kim et al., 2000). The ICE inhibitor (ICEi) Ac-Try-Val-Ala-Asp-chloromethylketone (YVAD) was purchased from Alexis Biochemicals (San Diego) and solubililized in DMSO at 10 mg/ml. The ICEi was diluted in Tyrode's solution before being used. On human peripheral blood mononuclear cells, the ICEi reduces endotoxin-induced secretion of mature IL-1β by 92%, as measured by ELISA (Cistron Biotechnology, Pine Brook, NJ).

human atrial trabeculae [2] = assay: Ischemia/reperfusion of suprafused human atrial trabeculae: postischemic developed force; details: N=7, I/R alone 35%
Experimental: (§1) Isolated Atrial Trabeculae Patients undergoing elective coronary artery bypass surgery with a pump oxygenator require insertion of a canula into the right atrium. At that time, a small segment of the right atrial appendage is routinely excised and discarded. Trabeculae were obtained from this discarded tissue. Human atrial tissue was placed in oxygenated modified Tyrode's buffer solution at 4° C. Modified Tyrode's solution was prepared daily with deionized distilled water and contained D-glucose at 5.0 mmol/liter, CaCl2 at 2.0 mmol/liter, NaCl at 118.0 mmol/liter, KCl at 4.0 mmol/liter, MgSO4.7H2O at 1.2 mmol/liter, NaHCO3 at 25.0 mmol/liter, and NaH2PO4 at 1.2 mmol/liter. […]
Experimental Design Trabeculae were equilibrated for 90 min to increase the baseline stretch force to 1,000 mg and to allow stabilization of developed force. […] Contractions were monitored by force transducers (Grass FT03) and recorded with a computerized preamplifier and digitizer (MacLab Quad Bridge, MacLab/8e, AD Instruments, Milford, Mass.) and continuously monitored with a Macintosh computer. […]
Statisical Analysis Data are expressed as the mean±SEM. Mean changes in developed force were calculated relative to the control value at 90 min for each patient's tissue. Statistical significance of differences between groups were determined by factorial ANOVA with Bonferroni-Dunn post hoc analysis. […]

human atrial trabeculae [3] = assay: Developed force of human atrial trabeculae exposed to exogenous TNFα, with or without IL-18BP; details: TNFα 1 ng/ml alone; after 90 minutes; n=5
Experimental: TNFα and IL-18BP were added to each bath change.
as §1, with “mmol/liter. The substrate-free Tyrode's solution contained choline chloride at 7 mmol/liter to maintain osmolarity. Unless otherwise indicated, chemicals and reagents were obtained from Sigma.” for “mmol/liter.”
(§2) Experimental Design Trabeculae were equilibrated for 90 min to increase the baseline stretch force to 1,000 mg and to allow stabilization of developed force. […] Contractions were monitored by force transducers (Grass FT03) and recorded with a computerized preamplifier and digitizer (MacLab Quad Bridge, MacLab/8e, AD Instruments, Milford, Mass.) and continuously monitored with a Macintosh computer.

human atrial trabeculae [4] = assay: Tissue creatine kinase (CK) activity in trabeculae exposed to TNFα, with or without IL-18BP; details: 90 minutes of TNFα exposure alone; n=6; control 6801±276
Experimental: CK activity is expressed in units of CK activity per milligram of wet tissue weight. (n=6).
Preserved Trabecular CK Activity End reperfusion tissue (90 min) CK activity was determined as described (Kaplan et al., 1993). Tissues were homogenized in 100 vol of ice-cold isotonic extraction buffer (Cleveland et al., 1997, Kaplan et al., 1993). The assay was performed with a CK kit (Sigma) by using an automated spectrophotometer. Results are presented as units of CK activity per mg (wet weight of tissue).
Casases are often associated with apoptosis. To assess cellular viability in trabeculae exposed to TNFα, tissue intracellular creatine kinase (CK) was measured. In this assay, high CK levels indicate viable cells. As depicted in FIG. 8, control trabeculae which underwent 90 minutes of normoxic superfusion, contained 6801±276 units of CK activity per milligram of wet tissue weight. […] Trabeculae exposed to TNFα in the presence of IL-18BP contained 5605±212 units/mg of tissue. […] This was an unexpected finding since the magnitude of developed force at the end of the experimental period was similar for I/R and TNFα.

human atrial trabeculae [5] = assay: Developed force of human atrial trabeculae exposed to exogenous IL-18 under normoxic conditions
Experimental: Mature IL-18 (100 ng/ml) were added to atrial trabeculae throughout the 90 min experimental period. The vertical axis indicates the mean percent change from baseline developed force. The baseline was determined at the end of the equilibration period (not shown). (n=6). *P<0.05, **P<0.001 as compared to control at the same interval and for the remainder of the experimental period.
Isolated Atrial Trabeculae Patients undergoing elective coronary artery bypass surgery with a pump oxygenator require insertion of a canula into the right atrium. At that time, a small segment of the right atrial appendage is routinely excised and discarded. Trabeculae were obtained from this discarded tissue. Human atrial tissue was placed in oxygenated modified Tyrode's buffer solution at 4° C. […]
as §2
Next, the direct effect of exogenous IL-18 on myocardial contractile function was determined. […]

## Ac-Try-Val-Ala-Asp-chloromethylketone [ICEi]
[1]
  reduction of endotoxin-induced secretion of mature IL-1β: 92%
Human atrial trabeculae [2]; ICEi 10 μg/ml
  postischemic contractile function, percent of control: 60%
Human atrial trabeculae [2]; ICEi 20 μg/ml
  postischemic contractile function, percent of control: 75.8%

## TNFα
Human atrial trabeculae [3]
  decrease in developed force compared to control: 58%
Human atrial trabeculae [4]
  preserved tissue CK activity: 3246±217 units/mg

## IL-18: exogenous mature IL-18 added to atrial trabeculae
Human atrial trabeculae [5]; IL-18 100 ng/ml, 90 minutes continuous exposure, normoxic, n=6
  decrease in developed force: 42%
Human atrial trabeculae [5]; human atrial trabeculae
  potency as myocardial depressant compared with TNFα: not as potent a myocardial depressant as is TNFα

Source: patent US20040234523A1, “Use of IL-18 inhibitors for the treatment and/or prevention of heart disease” (priority 2001, published 2004)
